How the values were obtained:
[1] = tested on: 16T (upper small loop without 16th thymine) (DNA, aptamer) AACGGTTTGATCTCCTCGTG; assay: ThT displacement fluorescence; details: pH 7.5; 400 nM aptamer, 10 μM thioflavin T; up to 50 μM
[2] = tested on: PFOS_JYP_2 (DNA, aptamer) CTCTCGGGACGACGGGGTAACGGTTTGATCTCCTTCGTGTTCTGTCGTCCC; assay: ThT displacement fluorescence; details: pH 7.5; 400 nM aptamer, 10 μM thioflavin T; up to 50 μM
[3] = tested on: 15C, 16T (DNA, aptamer) AACGGTTTGATCTCTCGTG; assay: ThT displacement fluorescence, Hill fit; details: pH 7.5, RT, 70 min; 400 nM aptamer; 10 μM thioflavin T displaced
[4] = tested on: 7T, 16T (DNA, aptamer) AACGGTTGATCTCCTCGTG; assay: ThT displacement fluorescence, Hill fit; details: pH 7.5, RT, 70 min; 400 nM aptamer; 10 μM thioflavin T displaced
[5] = tested on: 10A (upper small loop without 10th adenine) (DNA, aptamer) AACGGTTTGTCTCCTTCGTG; assay: ThT displacement fluorescence, Hill fit; details: pH 7.5, RT, 70 min; 400 nM aptamer; 10 μM thioflavin T displaced
[6] = tested on: 11T (upper small loop without 11th thymine) (DNA, aptamer) AACGGTTTGACTCCTTCGTG; assay: ThT displacement fluorescence, Hill fit; details: pH 7.5, RT, 70 min; 400 nM aptamer; 10 μM thioflavin T displaced
[7] = tested on: PFOS_JYP_7 (DNA, aptamer) CTCTCGGGACGACCACCAGGTCTCGTCTTATTGGCTATGTGTTGTCGTCCC; assay: ThT displacement fluorescence, Hill fit; details: pH 7.5, RT, 70 min; 400 nM aptamer; 10 μM thioflavin T displaced
[8] = tested on: 15C (upper small loop without 15th cytosine) (DNA, aptamer) AACGGTTTGATCTCTTCGTG; assay: ThT displacement fluorescence, Hill fit; details: pH 7.5, RT, 70 min; 400 nM aptamer; 10 μM thioflavin T displaced
[9] = tested on: 10A, 16T (DNA, aptamer) AACGGTTTGTCTCCTCGTG; assay: ThT displacement fluorescence, Hill fit; details: pH 7.5, RT, 70 min; 400 nM aptamer; 10 μM thioflavin T displaced
[10] = tested on: 11T, 16T (DNA, aptamer) AACGGTTTGACTCCTCGTG; assay: ThT displacement fluorescence, Hill fit; details: pH 7.5, RT, 70 min; 400 nM aptamer; 10 μM thioflavin T displaced
[11] = tested on: 9G (upper small loop without 9th guanine) (DNA, aptamer) AACGGTTTATCTCCTTCGTG; assay: ThT displacement fluorescence, Hill fit; details: pH 7.5, RT, 70 min; 400 nM aptamer; 10 μM thioflavin T displaced
[12] = tested on: upper small loop of PFOS_JYP_2 (DNA, aptamer) AACGGTTTGATCTCCTTCGTG; assay: ThT displacement fluorescence, Hill fit; details: pH 7.5, RT, 70 min; 400 nM aptamer; 10 μM thioflavin T displaced
[13] = tested on: PFOS_JYP_2 with flanking region shortened to 4 base pairs (DNA, aptamer) CGACGGGGTAACGGTTTGATCTCCTTCGTGTTCTGTCG; assay: ThT displacement fluorescence; details: different PFOS concentrations; highest not stated in material
[14] = tested on: PFOS_JYP_4 (DNA, aptamer) CTCTCGGGACGACGGGGGGCTATTTCTTCATTCTCTGCTGACTGTCGTCCC; assay: ThT displacement fluorescence, Hill fit; details: pH 7.5, RT, 70 min; 400 nM aptamer; 10 μM thioflavin T displaced
[15] = tested on: 9G, 16T (DNA, aptamer) AACGGTTTATCTCCTCGTG; assay: ThT displacement fluorescence, Hill fit; details: pH 7.5, RT, 70 min; 400 nM aptamer; 10 μM thioflavin T displaced
[16] = tested on: PFOS_JYP_6 (72 nt, qPCR) (DNA, aptamer) GGAGGCTCTCGGGACGACGGCAGCTCAGCATCTTTGTTGCCCCTGACTGTCGTCCCGATGCTGCAATCGTAA; assay: qPCR Ct change of aptamer-gold nanoparticle complex; details: Mg2+ 2 mM (PBS); 1x PBS, pH 7.5; 100 pmol aptamer; 0-400 pM PFOS
[17] = tested on: PFOS_JYP_1 (DNA, aptamer) CTCTCGGGACGACGGGTAGTCTGTGTATGCTCGCAAGCGTGCTGTCGTCCC; assay: ThT displacement fluorescence, Hill fit; details: pH 7.5, RT, 70 min; 400 nM aptamer; 10 μM thioflavin T displaced
[18] = tested on: PFOS_JYP_2 upper loop, ninth guanine mutated to cytosine (DNA, aptamer) AACGGTTTCATCTCCTTCGTG; assay: ThT displacement fluorescence, Hill fit; details: pH 7.5, RT, 70 min; 400 nM aptamer; 10 μM thioflavin T displaced
[19] = tested on: 16T (upper small loop without 16th thymine) (DNA, aptamer) AACGGTTTGATCTCCTCGTG; assay: ThT displacement fluorescence, Hill fit; details: pH 7.5, RT, 70 min; 400 nM aptamer; 10 μM thioflavin T displaced
[20] = tested on: PFOS_JYP_2 (DNA, aptamer) CTCTCGGGACGACGGGGTAACGGTTTGATCTCCTTCGTGTTCTGTCGTCCC; assay: ThT displacement fluorescence, Hill fit; details: pH 7.5, RT, 70 min; 400 nM aptamer; 10 μM thioflavin T displaced
[21] = tested on: PFOS_JYP_6 (DNA, aptamer) CTCTCGGGACGACGGCAGCTCAGCATCTTTGTTGCCCCTGACTGTCGTCCC; assay: ThT displacement fluorescence, Hill fit; details: pH 7.5, RT, 70 min; 400 nM aptamer; 10 μM thioflavin T displaced
[22] = tested on: 7T (upper small loop without 7th thymine) (DNA, aptamer) AACGGTTGATCTCCTTCGTG; assay: ThT displacement fluorescence, Hill fit; details: pH 7.5, RT, 70 min; 400 nM aptamer; 10 μM thioflavin T displaced
[23] = tested on: PFOS_JYP_5 (DNA, aptamer) CTCTCGGGACGACGGCCAGATGGAGCTTTTATTTCCCTTCCTCGTCGTCCC; assay: ThT displacement fluorescence, Hill fit; details: pH 7.5, RT, 70 min; 400 nM aptamer; 10 μM thioflavin T displaced
[24] = tested on: PFOS_JYP_3 (DNA, aptamer) CTCTCGGGACGACGGGGGTTGCATCTTTATATGTTTCTTCTCTGTCGTCCC; assay: ThT displacement fluorescence, Hill fit; details: pH 7.5, RT, 70 min; 400 nM aptamer; 10 μM thioflavin T displaced

## O=C(O)C(F)(F)C(F)(F)C(F)(F)C(F)(F)C(F)(F)C(F)(F)C(F)(F)F
[1]
  binding: weak
[2]
  binding: weak

## O=C(O)C(F)(F)C(F)(F)C(F)(F)C(F)(F)C(F)(F)C(F)(F)C(F)(F)C(F)(F)C(F)(F)F
[2]
  binding: weak

## O=S(=O)(O)C(F)(F)C(F)(F)C(F)(F)C(F)(F)F
[2]
  binding: no

## O=S(=O)(O)C(F)(F)C(F)(F)C(F)(F)C(F)(F)C(F)(F)C(F)(F)F
[1]
  binding: weak
[2]
  binding: weak

## O=C(O)C(F)(F)C(F)(F)C(F)(F)F
[2]
  binding: no

## O=S(=O)(O)C(F)(F)C(F)(F)C(F)(F)C(F)(F)C(F)(F)C(F)(F)C(F)(F)C(F)(F)F
[3]
  KD: 7.86 ± 0.18 µM
[4]
  KD: 7.97 ± 0.49 µM
[5]
  KD: 8.30 ± 0.65 µM
[6]
  KD: 8.60 ± 0.27 µM
[7]
  KD: 8.42 ± 0.34 µM
[8]
  KD: 7.57 ± 0.12 µM
[9]
  KD: 8.19 ± 0.04 µM
[10]
  KD: 8.82 ± 0.37 µM
[11]
  KD: 8.86 ± 0.53 µM
[12]
  KD: 11.21 ± 0.16 µM
[13]
  binding: no
[14]
  KD: 6.87 ± 0.06 µM
[15]
  KD: 7.35 ± 0.42 µM
[16]
  binding: yes
[17]
  KD: 6.93 ± 0.15 µM
[18]
  KD: 18.23 ± 1.92 µM
[19]
  KD: 6.77 ± 0.16 µM
[20]
  KD: 6.76 ± 0.20 µM
[21]
  KD: 7.69 ± 0.04 µM
[22]
  KD: 7.99 ± 0.50 µM
[23]
  KD: 7.33 ± 0.21 µM
[24]
  KD: 7.82 ± 0.19 µM

## O=C(O)C(F)(F)C(F)(F)C(F)(F)C(F)(F)C(F)(F)C(F)(F)C(F)(F)C(F)(F)F
[1]
  binding: weak
[2]
  binding: weak

## CCCCCCCCS(=O)(=O)O
[2]
  binding: no

Source: article PMC12368987 (2025)
